This note sets out measurements from ChEMBL document CHEMBL1933054, “Structure-based design of PDK1 inhibitors” (Bioorg Med Chem Lett, 2012).

Series [1] addresses Cyclin-dependent kinase 2 (Homo sapiens, UniProt P24941). Kind of series: Inhibition of CDK2.
Series [2] addresses T1, Receptor-type tyrosine-protein kinase FLT3 (Homo sapiens, UniProt P36888).
T1 sequence (P36888 whole entry): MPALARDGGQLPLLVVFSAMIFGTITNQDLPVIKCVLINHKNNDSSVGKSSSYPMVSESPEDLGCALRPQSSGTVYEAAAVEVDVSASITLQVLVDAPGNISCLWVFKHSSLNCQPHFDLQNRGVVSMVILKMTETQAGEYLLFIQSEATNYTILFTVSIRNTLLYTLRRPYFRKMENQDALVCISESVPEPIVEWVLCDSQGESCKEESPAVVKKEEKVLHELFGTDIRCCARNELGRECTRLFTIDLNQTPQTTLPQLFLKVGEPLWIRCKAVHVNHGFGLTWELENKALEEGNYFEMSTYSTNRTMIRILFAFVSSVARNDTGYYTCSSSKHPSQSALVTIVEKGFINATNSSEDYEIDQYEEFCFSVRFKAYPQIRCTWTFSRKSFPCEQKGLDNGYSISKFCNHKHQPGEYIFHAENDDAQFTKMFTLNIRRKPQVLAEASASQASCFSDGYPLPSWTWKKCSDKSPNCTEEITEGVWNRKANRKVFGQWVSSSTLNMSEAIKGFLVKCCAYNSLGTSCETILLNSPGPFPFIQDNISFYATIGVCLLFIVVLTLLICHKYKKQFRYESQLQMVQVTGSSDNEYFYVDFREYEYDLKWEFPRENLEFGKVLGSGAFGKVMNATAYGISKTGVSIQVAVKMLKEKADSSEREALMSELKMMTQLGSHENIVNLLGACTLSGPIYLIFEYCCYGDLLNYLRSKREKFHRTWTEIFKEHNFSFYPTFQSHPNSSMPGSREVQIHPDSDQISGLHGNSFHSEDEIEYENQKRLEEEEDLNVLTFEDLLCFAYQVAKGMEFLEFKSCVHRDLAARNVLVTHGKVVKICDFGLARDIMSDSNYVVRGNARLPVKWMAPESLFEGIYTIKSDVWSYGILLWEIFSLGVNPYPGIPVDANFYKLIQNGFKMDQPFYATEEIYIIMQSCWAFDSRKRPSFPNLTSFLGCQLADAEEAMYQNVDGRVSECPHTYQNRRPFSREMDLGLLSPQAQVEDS
Kind of series: Inhibition of Flt3.

The target in series [3] is Tyrosine-protein kinase JAK2 (Homo sapiens, UniProt O60674). Kind of series: Inhibition of JAK2.
In series [4] the target is T2, 3-phosphoinositide-dependent protein kinase 1 (Homo sapiens, UniProt O15530).
T2 sequence (O15530 whole entry): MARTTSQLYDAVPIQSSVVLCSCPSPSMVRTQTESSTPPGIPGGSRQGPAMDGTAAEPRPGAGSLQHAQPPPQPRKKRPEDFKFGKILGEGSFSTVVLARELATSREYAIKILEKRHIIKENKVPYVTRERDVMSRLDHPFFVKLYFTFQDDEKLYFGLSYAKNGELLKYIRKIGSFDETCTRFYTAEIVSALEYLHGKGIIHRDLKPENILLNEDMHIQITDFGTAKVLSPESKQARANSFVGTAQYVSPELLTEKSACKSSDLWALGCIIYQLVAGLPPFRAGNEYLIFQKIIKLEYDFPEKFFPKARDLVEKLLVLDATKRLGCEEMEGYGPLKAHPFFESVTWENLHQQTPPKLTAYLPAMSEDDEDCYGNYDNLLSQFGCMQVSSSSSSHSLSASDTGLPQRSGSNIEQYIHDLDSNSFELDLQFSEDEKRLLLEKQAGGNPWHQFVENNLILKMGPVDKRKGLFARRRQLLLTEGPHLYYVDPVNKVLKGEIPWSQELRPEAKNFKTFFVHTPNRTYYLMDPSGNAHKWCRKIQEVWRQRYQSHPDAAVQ
Kind of series: Inhibition of PDK1 using [gamma33P]-ATP as substrate after 30 mins by scintillation counting.

The nature of series [5]: Oral bioavailability in mouse. Type of series: ADME, organism-based. The following applies: in vivo.
Series [6] can be described thus: Half life in human liver microsomes. Type of series: ADME, Microsome.

Sequence of Tyrosine-protein kinase JAK2 (O60674 whole entry): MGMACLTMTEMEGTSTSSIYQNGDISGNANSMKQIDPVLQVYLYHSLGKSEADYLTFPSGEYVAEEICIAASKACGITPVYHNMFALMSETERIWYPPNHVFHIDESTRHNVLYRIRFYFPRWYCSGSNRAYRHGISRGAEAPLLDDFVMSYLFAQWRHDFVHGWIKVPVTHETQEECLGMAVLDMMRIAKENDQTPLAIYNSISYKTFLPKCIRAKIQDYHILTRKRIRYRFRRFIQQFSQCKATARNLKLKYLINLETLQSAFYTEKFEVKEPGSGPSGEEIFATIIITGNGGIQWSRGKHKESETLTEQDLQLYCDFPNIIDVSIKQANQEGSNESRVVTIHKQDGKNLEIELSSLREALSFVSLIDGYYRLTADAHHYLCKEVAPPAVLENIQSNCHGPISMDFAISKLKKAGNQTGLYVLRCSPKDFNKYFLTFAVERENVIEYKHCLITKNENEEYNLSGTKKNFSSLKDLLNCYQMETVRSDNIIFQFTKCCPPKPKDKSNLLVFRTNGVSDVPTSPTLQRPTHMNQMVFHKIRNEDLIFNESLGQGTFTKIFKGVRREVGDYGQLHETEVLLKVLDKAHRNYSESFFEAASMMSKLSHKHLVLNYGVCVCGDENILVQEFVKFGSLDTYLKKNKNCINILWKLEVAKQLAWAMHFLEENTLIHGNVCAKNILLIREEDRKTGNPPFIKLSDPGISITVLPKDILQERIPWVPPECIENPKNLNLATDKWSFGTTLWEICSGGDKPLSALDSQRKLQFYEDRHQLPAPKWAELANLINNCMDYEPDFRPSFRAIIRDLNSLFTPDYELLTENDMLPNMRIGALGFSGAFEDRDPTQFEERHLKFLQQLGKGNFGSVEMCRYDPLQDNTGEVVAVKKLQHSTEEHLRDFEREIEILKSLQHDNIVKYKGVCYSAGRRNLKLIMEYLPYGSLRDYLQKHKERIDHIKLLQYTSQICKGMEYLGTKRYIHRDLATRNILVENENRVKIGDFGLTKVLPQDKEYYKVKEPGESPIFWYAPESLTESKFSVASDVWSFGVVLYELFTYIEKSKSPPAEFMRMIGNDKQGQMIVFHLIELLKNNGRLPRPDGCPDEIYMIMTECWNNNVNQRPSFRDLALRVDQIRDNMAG

By IC50 is commonly meant the concentration that gives 50% inhibition. Regarding `CC(C)(C(N)=O)C(=O)NCCCNc1nc(Nc2cccc(NC(=O)N3CCCC3)c2)ncc1Br`, the IC50 in series [1] came out at 1500 nM.
With `Cc1cnc2nc1-c1cccc(c1)OCC/C=C/CN(C)Cc1cccc(c1)N2`, the IC50 in series [1] came out at 150 nM; in series [2], 22 nM; in series [3], 180 nM; in series [4], 1400 nM.
For the compound `CN1C/C=C/CCOc2cccc(c2)-c2nc(nc3[nH]cnc23)Nc2cccc(c2)C1`, the half-maximal inhibitory concentration (IC50) is 4100 nM in series [1], 58 nM in series [2] and 390 nM in series [4].
On to `Oc1ccc(-c2nc(Nc3cccc(Cl)c3)nc3[nH]cnc23)cc1`, for which the IC50 in series [1] turned out to be 7000 nM; in series [2], 7300 nM; in series [3] it was 830 nM; in series [4] it was 1600 nM.
On the same counts, the results for `COc1ccc(-c2nc(Nc3cccc(NC(=O)CN)c3)nc3[nH]cnc23)cc1OC` are over 10000 nM, 350 nM, 330 nM and 98 nM.
Usually bioavailability stands for dose-corrected exposure relative to a reference, in per cent. The low end stands for little systemic uptake, the high end for much systemic uptake. Usually half-life stands for the time needed for the level to fall by half in the phase considered. Low values mean rapid decline, high ones slow decline. In turn, `COc1ccc(-c2nc(Nc3cccc(NC(=O)N4CCCC4)c3)nc3nc[nH]c23)cc1` registered a bioavailability in series [5] of 65%. Moreover, the half-life in series [6] is over 1 h.
